Results as given in PubChem BioAssay AID2305 (GlaxoSmithKline (GSK), 2010).

Test system: P. falciparum 3D7 growth, pLDH absorbance
Test: P. falciparum 3D7 growth inhibition, dose response, strain 3D7 (AID 2305)

Point of comparison: `Cc1cccc2c(N=NC(=S)N(C)C)c(O)[nH]c12`, IC50 750 nM. Against it:
- O=C(/C=C/C=C/c1ccccc1)NCCCCCN1CCC(c2c[nH]c3ccccc23)CC1 — 1.6-fold higher, 1170 nM
- CC(C)C[C@H](NC(=O)OC(C)(C)C)C(=O)Nc1ccc(Cc2ccc(NC(=O)[C@H](CC(C)C)NC(=O)OC(C)(C)C)cc2)cc1 — within 1.5-fold, 760 nM
- COc1ccc(CNC(=O)Nc2cc3cc(-c4ccc(CN5CCCC5)cc4)ccc3n3c(C)nnc23)cc1 — within 1.5-fold, 650 nM
- CCOC(=O)c1cn(CC)c2cc(O[C@@H]3CCN(C(=O)OC(C)(C)C)C3)ccc2c1=O — 2.6-fold lower, 290 nM
- COCCNCc1cccc(-c2cccc(CNC3CCN(Cc4ccccc4)CC3)c2)c1 — 2.7-fold lower, 280 nM
- CN(CCN)Cc1cccc(-c2cccc(-c3nc4ccc(F)cc4[nH]3)c2)c1 — within 1.5-fold, 790 nM
- CC(C)(C)C1CCC(CC2=C(C(=O)O)c3ccccc3C2=O)CC1 (centres undefined) — within 1.5-fold, 1100 nM
- O=C(Nc1cc(Cl)cc(Cl)c1)c1cc(Cl)c(=O)n(Cc2ccc(Cl)cc2)c1 — within 1.5-fold, 860 nM
- COc1ccc(C(=O)[C@H]2C[C@@H]2CN(C)CCC(O)c2ccc(Cl)c(Cl)c2)cc1 (some centres undefined) — within 1.5-fold, 870 nM
- Cc1cc(NC(=O)c2ccc(S(=O)(=O)N(Cc3ccccc3)C(C)C)cc2)no1 — within 1.5-fold, 850 nM
- COc1ccc(CNc2ccc3nc(N)nc(N)c3c2)cc1 — 4.4-fold lower, 170 nM
- CN1CCC(N(C)C(=O)C=Cc2cn(-c3ccccc3)nc2-c2cc3ccccc3o2)CC1 — 1.8-fold higher, 1340 nM
- Cc1csc(-c2nonc2NC(=O)COc2ccccc2C(C)C)n1 — within 1.5-fold, 550 nM
- O=C(NC1CCCCN(Cc2ccccc2O)C1)c1cc(F)cc(F)c1 (centres undefined) — 1.6-fold higher, 1170 nM
- Cc1cc(NN=Cc2ccc(Cl)cc2)c2ccc(F)cc2n1 — within 1.5-fold, 760 nM
- CC(C)Cn1c(Sc2ccc(C#N)c([N+](=O)[O-])c2)nnc1-c1cccc(Cl)c1 — 2.5-fold lower, 300 nM
- Cc1ccccc1Cc1cccc(/N=C(\N)Nc2ccc(Cl)cc2)n1 — within 1.5-fold, 680 nM
- COc1cc(OC)c2c(C)cc(NCCCn3ccnc3)nc2c1 — within 1.5-fold, 800 nM
- O=C(Nc1cccc(Cl)c1Cl)N1CCc2cc3nccc(N4CCN5CCC[C@H]5C4)c3cc21 — within 1.5-fold, 1040 nM
- c1ccc(-c2nc(Nc3nc4ccccc4[nH]3)[nH]c2-c2ccccc2)cc1 — within 1.5-fold, 620 nM
- COc1ccc2ncc(F)c(CCN3CC[C@H](NCc4cc5c(s4)CCCN5)[C@H](O)C3)c2n1 — within 1.5-fold, 960 nM
- COc1cc(-c2nnc(SCC(=O)Nc3cc(C)on3)n2C)cc(OC)c1O — 4.2-fold lower, 180 nM
- Oc1ccc(CCNCCCCCCNCCc2ccc(Cl)c(Cl)c2)cc1O — within 1.5-fold, 730 nM
- COc1ccc(F)cc1-c1csc(N(c2ccc(F)cc2)C2CCNCC2)n1 — 1.6-fold higher, 1210 nM
- Cc1sc(CNCCCNc2cc(=O)c3ccccc3[nH]2)cc1Br — within 1.5-fold, 760 nM
- COc1cccc2sc(N3CCN(C(=O)c4ccc([N+](=O)[O-])o4)CC3)nc12 — within 1.5-fold, 870 nM
- CC(C)(C)C1CC(=O)C[C@@H]2C(=O)N(C3CCCCC3)C(=O)[C@H]12 (some centres undefined) — 1.8-fold lower, 420 nM
- C[C@H]1[C@H](c2cccc(Cl)c2)OCC(C)(C)N1C(=O)CCN1CCCCC1 — within 1.5-fold, 920 nM
- CN1CCN(c2ccnc3ccc(NC(=O)Nc4ccc(Cl)cc4)cc23)CC1 — 6.8-fold lower, 110 nM
- CCCNC(=O)C1Cc2cc(OC)c(OC)cc2C2(N1)C(=O)N(Cc1cccc(OC)c1)c1ccccc12 (centres undefined) — within 1.5-fold, 860 nM
- COc1ccc2nccc([C@@H](O)CN3CCC(NC(=O)C(=O)c4c[nH]c5c(C)cccc45)CC3)c2c1 — 2.4-fold lower, 310 nM
- CN1CCc2cc(NS(=O)(=O)c3ccc(-c4ccc(Cl)s4)cc3)c(N3CCCCC3)cc2CC1 — within 1.5-fold, 730 nM
- CC(C)C(C(=O)Nc1ccc2c(c1)OCO2)c1ccc(Cl)cc1 (centres undefined) — within 1.5-fold, 720 nM
- CCCc1cc(Cc2cnc(N)nc2N)ccc1OCCCCCC(=O)O — within 1.5-fold, 580 nM
- COc1ccc(C2CCC(NCCCCNC(=O)c3ccc(NC(=O)c4ccc(Cl)cc4)cc3)CC2)cc1 (centres undefined) — within 1.5-fold, 630 nM
- COc1cc2nc(N3CCC(CNC(=O)c4ccc(-c5ccc(C(=O)N(C)C)cc5O)cc4)CC3)nc(N)c2cc1OC — 2.7-fold lower, 280 nM
- Cc1cc(N[C@@H](Cc2ccccc2)C(=O)Nc2ccccc2)nc(NCCc2cccnc2)n1 — 1.8-fold higher, 1340 nM
- O=C(NC1CCC(CN2CCC(c3c[nH]c4ccccc34)CC2)CC1)C1(O)c2ccccc2-c2ccccc21 (centres undefined) — 1.6-fold higher, 1190 nM
- Cc1cc(N[C@@H](Cc2ccccc2)C(=O)Nc2ccccc2)nc(NCCc2ccccc2)n1 — within 1.5-fold, 870 nM
- CCC(Cc1cnc2nc(N)nc(N)c2n1)c1ccc(C(=O)O)cc1 (centres undefined) — 3-fold lower, 250 nM
- Cc1ccc(NC(=O)c2ccc(N3CCN(c4ccncc4)CC3)cc2)cc1F — within 1.5-fold, 740 nM
- COc1cccc(CNC(=O)c2cccc(-c3ccc(CN4CCC(N5CCCC5)CC4)cc3)n2)c1 — 2.4-fold higher, 1790 nM
- Cc1onc(-c2ccccc2Cl)c1C(=O)Nc1cc(Cl)c(Cl)cc1Cl — 1.6-fold higher, 1180 nM
- Cc1ccc(NC(=S)N2CCCN(CCCCCNC(=O)/C=C/c3ccc(Cl)c(Cl)c3)CC2)cc1Cl — within 1.5-fold, 920 nM
- CC(C)C[C@H](Nc1ccnc(NCC2CCCCC2)n1)C(=O)NCCc1ccccc1 — the same, 750 nM
- COCCNCc1cccc(-c2ccc3c(Nc4ccc(Oc5ccccc5)cc4)ccnc3c2)c1 — within 1.5-fold, 520 nM
- Cc1cc(N2CCCC2)nc(Nc2ccc(NC(=O)c3ccc4c(c3)OCO4)cc2)n1 — within 1.5-fold, 810 nM
- COc1ccccc1C1CCN(C2CCC(NC(=O)/C=C/c3cc(F)cc(F)c3)CC2)CC1 (centres undefined) — within 1.5-fold, 1110 nM
